Measurements reported in PubChem BioAssay AID226 (DTP/NCI, 2004).
“And” between values parts separate entries of the source, which are not always exact repeats. Equal entries are not always repeated. Inconclusive results and toxic doses are left out.

System: B6C3F1 mice, intracerebral ependymoblastoma, median survival T/C
Assay: NCI In Vivo Anticancer Drug Screen. Data for tumor model Ependymoblastoma (intracerebral) in B6C3F1 mice
Details: endpoint: median survival time, higher = longer survival
Experimental: The antitumor activity of compounds was measured in mice bearing transplantable tumors. Survival or tumor size were measured and the results are expressed as the measurement made in the treated group (T) divided by the measurement made in the vehicle treated control group (C). The tumor model used in this assay is Ependymoblastoma (intracerebral) in B6C3F1 mice

[1] = dose: 1.0 mg/kg/injection, schedule: Q01DX005 (ip), vehicle: saline
[2] = dose: 2.0 mg/kg/injection, schedule: Q01DX005 (ip), vehicle: Klucel (hydroxypropylcellulose) (HPC)
[3] = dose: 2.0 mg/kg/injection, schedule: Q01DX005 (ip), vehicle: saline
[4] = dose: 4.0 mg/kg/injection, schedule: Q01DX005 (ip), vehicle: Klucel (hydroxypropylcellulose) (HPC)

CCCN(C)C(=O)N(CCCl)N=O
T/C (dose: 19.4 mg/kg/injection, schedule: Q01DX001 (ip), vehicle: DMSO): 116 % of control
T/C (dose: 31.3 mg/kg/injection, schedule: Q01DX001 (ip), vehicle: saline + alcohol): 320 % of control
T/C (dose: 32.4 mg/kg/injection, schedule: Q01DX001 (ip), vehicle: DMSO): 169 % of control
T/C (dose: 54.0 mg/kg/injection, schedule: Q01DX001 (ip), vehicle: DMSO): 239 % of control
T/C (dose: 62.5 mg/kg/injection, schedule: Q01DX001 (ip), vehicle: saline + alcohol): 324 % of control
T/C (dose: 90.0 mg/kg/injection, schedule: Q01DX001 (ip), vehicle: DMSO): 368 % of control
T/C (dose: 125.0 mg/kg/injection, schedule: Q01DX001 (ip), vehicle: saline + alcohol): 110 % of control
T/C (dose: 150.0 mg/kg/injection, schedule: Q01DX001 (ip), vehicle: DMSO): 366 % of control
T/C (dose: 250.0 mg/kg/injection, schedule: Q01DX001 (ip), vehicle: DMSO): 365 % of control

COc1cc(NS(C)(=O)=O)ccc1Nc1c2ccccc2nc2ccccc12
T/C (dose: 1.0 mg/kg/injection, schedule: Q01DX005 (ip), vehicle: Klucel (hydroxypropylcellulose) (HPC)): 110 % of control
T/C [1]: 103 % of control and 104 % of control
T/C (dose: 1.0 mg/kg/injection, schedule: Q01DX005 (ip), vehicle: water): 94 % of control and 96 % of control (2×)
T/C [2]: 99 % of control
T/C [3]: 107 % of control and 112 % of control
T/C (dose: 2.0 mg/kg/injection, schedule: Q01DX005 (ip), vehicle: water): 94 % of control and 100 % of control and 101 % of control
T/C [4]: 103 % of control
T/C (dose: 4.0 mg/kg/injection, schedule: Q01DX005 (ip), vehicle: saline): 103 % of control
T/C (dose: 4.0 mg/kg/injection, schedule: Q01DX005 (ip), vehicle: water): 96 % of control and 100 % of control and 108 % of control
T/C (dose: 8.0 mg/kg/injection, schedule: Q01DX005 (ip), vehicle: saline): 106 % of control and 112 % of control
T/C (dose: 8.0 mg/kg/injection, schedule: Q01DX005 (ip), vehicle: water): 100 % of control and 107 % of control and 112 % of control

Cc1c[nH]c(=O)[nH]c1=O
T/C (dose: 64.0 mg/kg/injection, schedule: Q01DX005 (ip), vehicle: Klucel (hydroxypropylcellulose) (HPC)): 104 % of control
T/C (dose: 128.0 mg/kg/injection, schedule: Q01DX005 (ip), vehicle: Klucel (hydroxypropylcellulose) (HPC)): 92 % of control
T/C (dose: 256.0 mg/kg/injection, schedule: Q01DX005 (ip), vehicle: Klucel (hydroxypropylcellulose) (HPC)): 99 % of control
T/C (dose: 512.0 mg/kg/injection, schedule: Q01DX005 (ip), vehicle: Klucel (hydroxypropylcellulose) (HPC)): 95 % of control
T/C (dose: 1024.0 mg/kg/injection, schedule: Q01DX005 (ip), vehicle: Klucel (hydroxypropylcellulose) (HPC)): 95 % of control

CC(=O)OC1COC(NC(=O)N(CCCl)N=O)C(OC(C)=O)C1OC(C)=O (configuration not stated)
T/C (dose: 0.18 mg/kg/injection, schedule: Q01DX009 (ip), vehicle: saline with Tween-80): 103 % of control
T/C (dose: 0.38 mg/kg/injection, schedule: Q01DX009 (ip), vehicle: saline with Tween-80): 117 % of control
T/C (dose: 0.75 mg/kg/injection, schedule: Q01DX005 (ip), vehicle: saline with Tween-80): 113 % of control
T/C (dose: 1.5 mg/kg/injection, schedule: Q01DX005 (ip), vehicle: saline with Tween-80): 96 % of control and 121 % of control
T/C (dose: 3.0 mg/kg/injection, schedule: Q01DX005 (ip), vehicle: saline with Tween-80): 91 % of control
T/C (dose: 3.0 mg/kg/injection, schedule: Q01DX009 (ip), vehicle: saline with Tween-80): 178 % of control
T/C (dose: 6.0 mg/kg/injection, schedule: Q01DX005 (ip), vehicle: saline with Tween-80): 107 % of control
T/C (dose: 6.0 mg/kg/injection, schedule: Q01DX009 (ip), vehicle: saline with Tween-80): 165 % of control
T/C (dose: 12.0 mg/kg/injection, schedule: Q01DX005 (ip), vehicle: saline with Tween-80): 158 % of control

CN(C)C1=CC(=O)C(N(C)C)=CC1=O
T/C (dose: 12.5 mg/kg/injection, schedule: Q01DX005 (ip), vehicle: saline): 105 % of control
T/C (dose: 25.0 mg/kg/injection, schedule: Q01DX005 (ip), vehicle: saline): 101 % of control
T/C (dose: 50.0 mg/kg/injection, schedule: Q01DX005 (ip), vehicle: saline): 100 % of control
T/C (dose: 100.0 mg/kg/injection, schedule: Q01DX005 (ip), vehicle: saline): 97 % of control

O=P1(N(CCCl)CCCl)NCCCO1 (configuration not stated)
T/C (dose: 40.0 mg/kg/injection, schedule: Q01DX001 (ip), vehicle: saline): 109 % of control
T/C (dose: 320.0 mg/kg/injection, schedule: Q01DX001 (ip), vehicle: saline): 163 % of control

COC1OC(CNC(=O)N(CCCl)N=O)C(O)C(O)C1O (configuration not stated)
T/C (dose: 0.5 mg/kg/injection, schedule: Q01DX001 (ip), vehicle: saline): 103 % of control and 119 % of control
T/C (dose: 1.0 mg/kg/injection, schedule: Q01DX001 (ip), vehicle: saline): 109 % of control and 86 % of control
T/C (dose: 2.0 mg/kg/injection, schedule: Q01DX001 (ip), vehicle: saline): 99 % of control and 103 % of control
T/C (dose: 4.0 mg/kg/injection, schedule: Q01DX001 (ip), vehicle: saline): 105 % of control and 109 % of control
T/C (dose: 8.0 mg/kg/injection, schedule: Q01DX001 (ip), vehicle: saline): 103 % of control and 111 % of control
T/C (dose: 16.0 mg/kg/injection, schedule: Q01DX001 (ip), vehicle: saline): 119 % of control

O=C(O)c1ccc(C(=O)O)c(C(=O)O)c1.[NH-]C1CCCCC1[NH-].[Pt+2]
T/C (dose: 0.25 mg/kg/injection, schedule: Q01DX005 (ip), vehicle: dextrose): 92 % of control and 101 % of control
T/C (dose: 0.5 mg/kg/injection, schedule: Q01DX005 (ip), vehicle: dextrose): 100 % of control and 118 % of control
T/C (dose: 1.0 mg/kg/injection, schedule: Q01DX005 (ip), vehicle: dextrose): 95 % of control and 100 % of control
T/C (dose: 2.0 mg/kg/injection, schedule: Q01DX005 (ip), vehicle: dextrose): 100 % of control and 105 % of control
T/C (dose: 4.0 mg/kg/injection, schedule: Q01DX005 (ip), vehicle: dextrose): 98 % of control and 114 % of control

Nc1n[nH]c(N)n1
T/C (dose: 128.0 mg/kg/injection, schedule: Q01DX005 (ip), vehicle: saline): 93 % of control and 88 % of control
T/C (dose: 256.0 mg/kg/injection, schedule: Q01DX005 (ip), vehicle: saline): 95 % of control and 100 % of control
T/C (dose: 512.0 mg/kg/injection, schedule: Q01DX005 (ip), vehicle: saline): 92 % of control and 103 % of control
T/C (dose: 1024.0 mg/kg/injection, schedule: Q01DX005 (ip), vehicle: saline): 118 % of control and 87 % of control

O=C1C(NCCO)=C(N2CC2)C(=O)C(NCCO)=C1N1CC1
T/C (dose: 0.06 mg/kg/injection, schedule: Q01DX005 (ip), vehicle: saline): 112 % of control
T/C (dose: 0.12 mg/kg/injection, schedule: Q01DX005 (ip), vehicle: saline): 113 % of control
T/C (dose: 0.19 mg/kg/injection, schedule: Q01DX005 (ip), vehicle: saline): 96 % of control
T/C (dose: 0.25 mg/kg/injection, schedule: Q01DX005 (ip), vehicle: saline): 91 % of control and 120 % of control
T/C (dose: 0.38 mg/kg/injection, schedule: Q01DX005 (ip), vehicle: saline): 100 % of control
T/C (dose: 0.5 mg/kg/injection, schedule: Q01DX005 (ip), vehicle: saline): 106 % of control
T/C (dose: 0.75 mg/kg/injection, schedule: Q01DX005 (ip), vehicle: saline): 117 % of control
T/C [1]: 114 % of control
T/C (dose: 1.5 mg/kg/injection, schedule: Q01DX005 (ip), vehicle: saline): 120 % of control
T/C [3]: 110 % of control

CCCCCCCC(=O)O[C@H]1[C@H]2[C@@H](CC1(C)C)C(=O)[C@]13O[C@H]1C(=O)[C@]1(CO1)[C@]23C
T/C (dose: 0.62 mg/kg/injection, schedule: Q01DX005 (ip), vehicle: Klucel (hydroxypropylcellulose) (HPC)): 107 % of control
T/C (dose: 1.25 mg/kg/injection, schedule: Q01DX005 (ip), vehicle: Klucel (hydroxypropylcellulose) (HPC)): 106 % of control
T/C (dose: 2.5 mg/kg/injection, schedule: Q01DX005 (ip), vehicle: Klucel (hydroxypropylcellulose) (HPC)): 111 % of control
T/C (dose: 5.0 mg/kg/injection, schedule: Q01DX005 (ip), vehicle: Klucel (hydroxypropylcellulose) (HPC)): 110 % of control
T/C (dose: 10.0 mg/kg/injection, schedule: Q01DX005 (ip), vehicle: Klucel (hydroxypropylcellulose) (HPC)): 102 % of control
T/C (dose: 20.0 mg/kg/injection, schedule: Q01DX005 (ip), vehicle: Klucel (hydroxypropylcellulose) (HPC)): 101 % of control

COC12C(COC(N)=O)C3=C(C(=O)C(C)=C(N)C3=O)N1CC1C2N1C (configuration not stated)
T/C [2]: 105 % of control and 110 % of control
T/C [4]: 112 % of control and 114 % of control

COC(=O)c1ccc(N=NN(C)C)cc1
T/C (dose: 8.0 mg/kg/injection, schedule: Q01DX005 (ip), vehicle: saline + alcohol): 114 % of control
T/C (dose: 16.0 mg/kg/injection, schedule: Q01DX005 (ip), vehicle: saline + alcohol): 114 % of control
T/C (dose: 128.0 mg/kg/injection, schedule: Q01DX005 (ip), vehicle: saline + alcohol): 160 % of control and 164 % of control
T/C (dose: 256.0 mg/kg/injection, schedule: Q01DX005 (ip), vehicle: saline + alcohol): 100 % of control
